In patent EP0603240B1, “SAFENING HERBICIDAL PYRAZOLYLSULFONYLUREAS” (priority 1991, dated 1993):

How the values were obtained:
Assay type in all cases: in vivo
corn [1] = experiment: Example 22: retest of Example 21 at reduced greenhouse temperatures; conditions: Table 22
Protocol: (§1) Containers were filled and compacted with a fumigated silt loam top soil to a depth of about 1.3 cm from the top of the container. A first container was designated as an untreated control, a second container was designated as a herbicide control, and a third container was designated as a herbicide + antidote test container. Each of the containers was seeded with a crop species. A measured amount of herbicide dispersed or dissolved in acetone was applied to a measured quantity of soil. To this same quantity of soil treated with herbicide, there was added a measured amount of antidote dispersed or dissolved in acetone. The quantity of soil treated with the herbicide and antidote was thoroughly mixed to incorporate the herbicide and antidote in the soil uniformly. The seed bed in the third container of soil was covered with the soil treated with the herbicide and antidote and the container was leveled. For each test series, the seed beds of the first and second containers were likewise covered by soil layers. the cover layer of the first container was not treated with herbicide or antidote.
(§2) The containers were then placed on a bench in a greenhouse and sub-irrigated as required for the duration of the test. […] Plant response is measured in terms of percent injury. Antidote efficacy is indicated as the difference in plant injury by the herbicide(s) without the antidote and with the antidote.
(§3) This procedure is the same as Procedure I, but modified in the manner that after incorporation of the chemicals (herbicide and antidote) the containers with the covered seedbed were treated with an initial overhead irrigation equivalent to 0.6 cm rainfall, then subsequently sub-irrigated as required on greenhouse benches.
(§4) In this example, tests were conducted as in the preceding Examples 18-20, except here the co-herbicidal component was SUTAN® PLUS, a commercial product comprising as the active herbicidal ingredient the compound butylate (Herbicide No. 10) and an antidote […] (Antidote No. 1). Again, the antidotal compounds herein were Nos. 1, 2, 7, 13 and 15. Procedure II was used.
The experiments in this example were designed as a retest of those described in Example 21 in view of the uncharacteristically poor corn safety and weed control, believed to have resulted from unseasonably high temperatures in the greenhouse. Accordingly, temperatures were reduced for these tests.

corn [2] = experiment: Example 19, Procedure II: Herbicide No. 1 + ERADICANE EXTRA with added antidotes
Protocol: as §1, §2, §3
(§5) In the test reported in this example, the herbicidal composition was similar to that used in Example 16 in that Herbicide No. 1 was combined with EPTC (Herbicide No. 4) as a co-herbicide and the antidotes included Nos. 1, 2, 7, 13 and 15. However, in this test the EPTC was introduced as a formulation of ERADICANE (EPTC + the antidote R-25788, i.e., Antidote No. 1) at an application rate of 8.96 kg/ha. Thus, in this test two antidotes were present, viz. R-25788 and one of the auxilliary antidotes, No. 2, 13 and 15.
The test reported in this example was performed in the same manner and with the same antidotes used in Example 18, the only difference being the substitution of the commercial herbicidal product ERADICANE® EXTRA for ERADICANE®. ERADICANE EXTRA is a formulation containing both an antidote, i.e., R-29148 (Antidote No. 5 herein), and an extender, dietholate.

[3] = system: barnyardgrass (Echinochloa crusgalli); experiment: Example 18, Procedure II: Herbicide No. 1 + ERADICANE (EPTC + R-25788) with auxiliary antidotes
Protocol: as §1, §2, §3
(§6) In the series of greenhouse tests described below, for routine screening purposes the herbicide/antidote compositions were tested in crop/weed combinations involving corn as the crop and either or both of the weeds barnyardgrass (Echinochloa crusgalli), a monocotyledonous weed, and velvetleaf (Abutilon theophrasti), a dicotyledonous weed. In the tables below, these weeds are indicated by the symbols "BYG" and "VL", respectively.
as §5
(§7) Test procedures were those of Procedure II above.

[4] = system: velvetleaf (Abutilon theophrasti); experiment: as above
Protocol: as §1, §2, §3, §6, §5, §7

corn [5] = experiment: Example 9, Procedure II: Herbicide No. 1 + pretilachlor (No. 13) with antidotes
Protocol: as §1, §2, §3
In this example the safening effect on a composition comprising Herbicide No. 1 and another leading rice herbicide, i.e., Herbicide No. 13, was investigated using the same antidotes and test procedure described in the preceding example. Herbicide No. 13 is pretilachlor, active ingredient used in the commercial rice herbicides RIFIT®, SOFIT® and SOFIT® SUPER.

[6] = system: barnyardgrass (Echinochloa crusgalli); experiment: Example 6, Procedure II: Herbicide No. 1 + alachlor (No. 7) with antidotes
Protocol: as §1, §2, §3, §6
(§8) This example was designed to investigate the antidotal efficacy of a plurality of antidotal compounds against a composition comprising Herbicide No. 1 in combination with Herbicide No. 7 (alachlor). The antidotal compounds used herein were Nos. 1, 2, 7, 13 and 15.
(§9) In this example, Procedure II described above was followed. The data from the tests in this example is shown in Table 6 and represents averages of duplicate replications.

[7] = system: velvetleaf (Abutilon theophrasti); experiment: as above
Protocol: as §1, §2, §3, §6, §8, §9

corn [8] = experiment: Example 21, Procedure II: Herbicide No. 1 + SUTAN PLUS (butylate + antidote) with antidotes
Protocol: as §1, §2, §3, §4

[9] = system: barnyardgrass (Echinochloa crusgalli); experiment: as above
Protocol: as §1, §2, §3, §6, §4

[10] = system: velvetleaf (Abutilon theophrasti); experiment: as above
Protocol: as §1, §2, §3, §6, §4

[11] = Herbicide No.1 0.56 Kg/ha + SUTAN + 8.96 Kg/ha + antidote 2.24 Kg/ha
[12] = Herbicide No.1 0.56 Kg/ha + SUTAN + 8.96 Kg/ha + antidote 8.96 Kg/ha
[13] = Herbicide No.1 1.12 Kg/ha + SUTAN + 8.96 Kg/ha + antidote 2.24 Kg/ha
[14] = Herbicide No.1 1.12 Kg/ha + SUTAN + 8.96 Kg/ha + antidote 8.96 Kg/ha
[15] = Herbicide No.1 0.56 kg/ha + ERADICANE EXTRA 8.96 kg/ha, antidote 2.24 kg/ha
[16] = Herbicide No.1 0.56 kg/ha + ERADICANE EXTRA 8.96 kg/ha, antidote 8.96 kg/ha
[17] = Herbicide No.1 1.12 kg/ha + ERADICANE EXTRA 8.96 kg/ha, antidote 2.24 kg/ha
[18] = Herbicide No.1 1.12 kg/ha + ERADICANE EXTRA 8.96 kg/ha, antidote 8.96 kg/ha
[19] = Herbicide No.1 0.56 kg/ha + ERADICANE 8.96 kg/ha, antidote 2.24 kg/ha
[20] = Herbicide No.1 0.56 kg/ha + ERADICANE 8.96 kg/ha, antidote 8.96 kg/ha
[21] = Herbicide No.1 1.12 kg/ha + ERADICANE 8.96 kg/ha, antidote 2.24 kg/ha
[22] = Herbicide No.1 1.12 kg/ha + ERADICANE 8.96 kg/ha, antidote 8.96 kg/ha
[23] = Herbicide No.1 0.14 kg/ha + Herbicide No.13 2.24 kg/ha, antidote rate 2.24 kg/ha
[24] = Herbicide No.1 0.14 kg/ha + Herbicide No.13 2.24 kg/ha, antidote rate 8.96 kg/ha
[25] = Herbicide No.1 0.56 kg/ha + Herbicide No.13 2.24 kg/ha, antidote rate 2.24 kg/ha
[26] = Herbicide No.1 0.56 kg/ha + Herbicide No.13 2.24 kg/ha, antidote rate 8.96 kg/ha
[27] = Herbicide No.1 0.14 + No.7 4.48 kg/ha + antidote 2.24 kg/ha
[28] = Herbicide No.1 0.14 + No.7 4.48 kg/ha + antidote 8.96 kg/ha
[29] = Herbicide No.1 0.56 + No.7 4.48 kg/ha + antidote 2.24 kg/ha
[30] = Herbicide No.1 0.56 + No.7 4.48 kg/ha + antidote 8.96 kg/ha
[31] = Herbicide No.1 0.56 kg/ha + SUTAN + 8.96 kg/ha, antidote 2.24 kg/ha
[32] = Herbicide No.1 0.56 kg/ha + SUTAN + 8.96 kg/ha, antidote 8.96 kg/ha
[33] = Herbicide No.1 1.12 kg/ha + SUTAN + 8.96 kg/ha, antidote 2.24 kg/ha
[34] = Herbicide No.1 1.12 kg/ha + SUTAN + 8.96 kg/ha, antidote 8.96 kg/ha

SMILES	% Injury Corn (corn [1]; [11]) [%]	% Injury Corn (corn [1]; [12]) [%]	% Injury Corn (corn [1]; [13]) [%]	% Injury Corn (corn [1]; [14]) [%]	% Injury Corn (corn [2]; [15]) [%]	% Injury Corn (corn [2]; [16]) [%]	% Injury Corn (corn [2]; [17]) [%]	% Injury Corn (corn [2]; [18]) [%]	% Injury BYG [3, 19] [%]	% Injury BYG [3, 20] [%]	% Injury BYG [3, 21] [%]	% Injury BYG [3, 22] [%]	% Injury VL [4, 19] [%]	% Injury VL [4, 20] [%]	% Injury VL [4, 21] [%]	% Injury VL [4, 22] [%]	% Injury Corn (corn [5]; [23]) [%]	% Injury Corn (corn [5]; [24]) [%]	% Injury Corn (corn [5]; [25]) [%]	% Injury Corn (corn [5]; [26]) [%]	further results
CC1(C)OC(c2ccco2)CN1C(=O)C(Cl)Cl (stereo not drawn) [compound 15]	45	55	60	45	20	30	25	25	90	90	93	85	80	85	80	65	5	0	15	5	% Injury BYG [6, 27]: 100%; % Injury BYG [6, 28]: 100%; % Injury BYG [6, 29]: 100%; % Injury BYG [6, 30]: 100%; % Injury VL [7, 27]: 80%; % Injury VL [7, 28]: 65%; % Injury VL [7, 29]: 90%; % Injury VL [7, 30]: 95%; % Injury Corn (corn [8]; [31]): 25%; % Injury Corn (corn [8]; [32]): 25%; % Injury Corn (corn [8]; [33]): 30%; % Injury Corn (corn [8]; [34]): 20%; % Injury BYG [9, 31]: 0%; % Injury BYG [9, 32]: 10%; % Injury BYG [9, 33]: 15%; % Injury BYG [9, 34]: 40%; % Injury VL [10, 31]: 50%; % Injury VL [10, 32]: 60%; % Injury VL [10, 33]: 65%; % Injury VL [10, 34]: 65%
O=C(C(Cl)Cl)N1CCOC12CCCCC2 [compound 7]	45	50	65	50	15	20	25	25	90	85	85	85	75	80	70	75	10	0	30	25	% Injury BYG [6, 27]: 100%; % Injury BYG [6, 28]: 100%; % Injury BYG [6, 29]: 100%; % Injury BYG [6, 30]: 100%; % Injury VL [7, 27]: 75%; % Injury VL [7, 28]: 75%; % Injury VL [7, 29]: 90%; % Injury VL [7, 30]: 90%; % Injury Corn (corn [8]; [31]): 5%; % Injury Corn (corn [8]; [32]): 20%; % Injury Corn (corn [8]; [33]): 15%; % Injury Corn (corn [8]; [34]): 15%; % Injury BYG [9, 31]: 25%; % Injury BYG [9, 32]: 10%; % Injury BYG [9, 33]: 40%; % Injury BYG [9, 34]: 10%; % Injury VL [10, 31]: 45%; % Injury VL [10, 32]: 65%; % Injury VL [10, 33]: 65%; % Injury VL [10, 34]: 45%
CC1(C(Cl)Cl)OCCO1 [compound 13]	70	60	75	60	25	15	20	15	85	85	85	90	80	80	75	75	10	0	25	20	% Injury BYG [6, 27]: 100%; % Injury BYG [6, 28]: 100%; % Injury BYG [6, 29]: 100%; % Injury BYG [6, 30]: 100%; % Injury VL [7, 27]: 75%; % Injury VL [7, 28]: 65%; % Injury VL [7, 29]: 90%; % Injury VL [7, 30]: 90%; % Injury Corn (corn [8]; [31]): 0%; % Injury Corn (corn [8]; [32]): 10%; % Injury Corn (corn [8]; [33]): 5%; % Injury Corn (corn [8]; [34]): 10%; % Injury BYG [9, 31]: 40%; % Injury BYG [9, 32]: 50%; % Injury BYG [9, 33]: 70%; % Injury BYG [9, 34]: 70%; % Injury VL [10, 31]: 55%; % Injury VL [10, 32]: 40%; % Injury VL [10, 33]: 70%; % Injury VL [10, 34]: 70%
